Like-named read-outs stand apart in the source and are kept apart here. Peptide text beside a SMILES is read from it.
How the values were obtained:
[1] = biological target: HLA-C0401 (Homo sapiens, UniProt P10321, A176E/A330V/A35S/A73E/C25G/C350S/D138N/D33S/E299K/L171W/L180R/L218V/M285V/M309V/M331V/N104K/P208H/Q277E/Q291P/R243W/R38W/S101N/S123F/S140F/S297R/S48A/T329A/T363A/V319A/V327M); assay: Competitive peptide binding assay, CIR-C0401; conditions: HMy2.CIR-C0401 cells, reference Cy5-[…], class from inhibition at 5 and 15 μM, flow cytometry MFI; read-out: Binding affinity with HLA-C0401
Description: (§1) Then, competitive peptide binding assays were performed.

[2] = biological target: HLA-C0702 (Homo sapiens, UniProt P10321); assay: Competitive peptide binding assay, CIR-C0702
[3] = biological target: HLA-C0602 (Homo sapiens, UniProt P10321, A176E/A330V/C350S/L171W/L180W/L218V/M285V/M309V/M331V/N104K/P208H/Q277E/Q291P/R121W/S101N/S123Y/S297R/T329A/T363A/V319A/V328M); assay: Competitive peptide binding assay, CIR-C0602
[4] = biological target: HLA-C0102 (Homo sapiens, UniProt P10321, A176E/A330V/A35S/A97T/C350S/D114A/D33F/L171W/L180R/L218V/M285V/M309V/M331V/P208H/Q277E/Q291P/R121W/R243W/R30K/S123C/S140Y/S297R/T329A/T363A/V272M/V319A); assay: Competitive peptide binding assay, CIR-C0102; conditions: for inhibition at 5 µM / inhibition at 15 µM: read-out: Inhibition % of Cy5-reference peptide binding
Description: as §1

[5] = biological target: HLA-C0801 (Homo sapiens, UniProt P10321, A176T/A330V/A97T/C350S/D114A/D138N/D33Y/E201K/E299G/L171W/L218V/M285V/M309V/M331V/P208H/Q277E/Q291P/R59Q/S123Y/S140F/S297R/S48A/T329A/T363A/V319A/V328M); assay: Competitive peptide binding assay, CIR-C0801; conditions: HMy2.CIR-C0801 cells, reference Cy5-[…], class from inhibition at 5 and 15 μM, flow cytometry MFI; read-out: Binding affinity with HLA-C0801
Description: as §1

[6] = biological target: HLA-C0302 (Homo sapiens, UniProt P10321, A176E/A330V/A97T/C25G/C350S/D114A/D33Y/E197K/L127V/L171W/L218V/M285V/M309V/M331V/P208H/Q277E/Q291P/R243W/R45H/S123Y/S297R/S48A/T118I/T187L/T329A/T363A/V319A); assay: Competitive peptide binding assay, CIR-C0302; conditions: HMy2.CIR-C0302 cells, reference Cy5-[…], class from inhibition at 5 and 15 μM, flow cytometry MFI; read-out: Binding affinity with HLA-C0302
Description: as §1

[7] = biological target: HLA-B5801 (Homo sapiens, UniProt P01889, A329T/C349S/D201E/D98Y/E176V/E187L/E204Q/E69T/G107R/I218V/I90N/K202T/L105A/L119I/N104I/N87E/Q89R/Q94S/R106L/R155S/R180L/R86G/S101N/S121R/S35A/S48A/T118I/V127L/V306I/V36M/Y140S/Y91M); assay: Competitive peptide binding assay, CIR-B5801; conditions: HMy2.CIR-B5801 cells, reference Cy5-[…], class from inhibition at 5 and 15 μM, flow cytometry MFI; read-out: Binding affinity with HLA-B5801
Description: as §1

[8] = biological target: HLA-B1302 (Homo sapiens, UniProt P01889, A65T/A93T/A95T/D138N/D201E/D98Y/E176V/E204Q/E69M/E70A/G107R/K202T/L105A/L119W/N104T/N87E/Q94N/R106L/R155S/R169L/R180L/S101N/S121T/S35A/S48T/V127L/V36M/Y140L/Y91S); assay: Competitive peptide binding assay, CIR-B1302; conditions: HMy2.CIR-B1302 cells, reference Cy5-MMWYWGPSL, class from inhibition at 5 and 15 μM, flow cytometry MFI; read-out: Binding affinity with HLA-B1302
Description: as §1

[9] = biological target: HLA-B1501 (Homo sapiens, UniProt P01889, A329T/A93T/A95T/C349S/D201E/D98Y/E187L/E204Q/E69M/E70A/K202T/N87E/Q94N/R155S/R180W/S121R/S35A/S48A/V306I/V36M/Y140S/Y91S); assay: Competitive peptide binding assay, CIR-B1501; conditions: HMy2.CIR-B1501 cells, reference Cy5-[…], class from inhibition at 5 and 15 μM, flow cytometry MFI; read-out: Binding affinity with HLA-B1501
Description: as §1

[10] = biological target: HLA-B4601 (Homo sapiens, UniProt P01889, A329T/A93R/C349S/D201E/E100V/E187L/E204Q/E69M/E70A/I90K/K202T/N87E/R155S/R180W/S121R/S35A/S48A/V306I/V36M/Y140S); assay: Competitive peptide binding assay, CIR-B4601
Description: as §1

[11] = biological target: HLA-B1502 (Homo sapiens, UniProt P01889, A329T/A93T/A95T/C349S/D201E/D98Y/E187L/E204Q/E69M/E70A/H137Y/K202T/L119I/Q94N/R155S/R180L/S121R/S35A/S48A/T118I/V306I/V36M/Y140S/Y91S); assay: Competitive peptide binding assay, CIR-B1502; conditions: HMy2.CIR-B1502 cells, reference Cy5-[…], class from inhibition at 5 and 15 μM, flow cytometry MFI; read-out: Binding affinity with HLA-B1502
Description: as §1

[12] = biological target: HLA-B1301 (Homo sapiens, UniProt P01889, A65T/A93T/A95T/D138N/D201E/D98Y/E176V/E204Q/E69M/E70A/G107R/K202T/L105A/L119I/N104T/N87E/Q94N/R106L/R155S/R169L/R180L/S101N/S121R/S35A/S48T/T118I/V127L/V36M/Y140L/Y91S); assay: Competitive peptide binding assay, CIR-B1301; conditions: HMy2.CIR-B1301 cells, reference Cy5-[…], class from inhibition at 5 and 15 μM, flow cytometry MFI; read-out: Binding affinity with HLA-B1301
Description: as §1

[13] = biological target: HLA-B3501 (Homo sapiens, UniProt P01889, A329T/A93T/A95T/C349S/D201E/D98Y/E176V/E187L/E204Q/E69T/I218V/K202T/L119I/Q94N/R155S/R180L/S121R/S35A/S48A/T118I/V127L/V306I/V36M/Y140S/Y91F); assay: Competitive peptide binding assay, CIR-B3501; conditions: HMy2.CIR-B3501 cells, reference Cy5-[…], class from inhibition at 5 and 15 μM, flow cytometry MFI; read-out: Binding affinity with HLA-B3501
Description: as §1

[14] = HMy2.CIR-C0102 cells, reference Cy5-[…], class from inhibition at 5 and 15 μM, flow cytometry MFI, read-out: Binding affinity with HLA-C0102

Compound	IC50 [2] [µM]	IC50 [3] [µM]	IC50 [4, 14] [µM]	inhibition at 5 µM [4] [%]	inhibition at 15 µM [4] [%]	IC50 [5] [µM]	IC50 [6] [µM]	other results
CC[C@H](C)[C@H](NC(=O)[C@H](C)NC(=O)[C@H](CC(C)C)NC(=O)[C@@H](NC(=O)[C@@H](N)C(C)C)[C@@H](C)O)C(=O)N[C@@H](CC(C)C)C(=O)N[C@H](C(=O)N[C@@H](C)C(=O)N[C@@H](CC(C)C)C(=O)O)[C@@H](C)O [Epitope M3, VTLAILTAL] (H-VTLAILTAL-OH; N-terminus and C-terminus assumed)	5 to 15	> 15	< 5	69.2	87.4			IC50 [1]: < 5 µM
CC[C@H](C)[C@H](NC(=O)[C@H](C)NC(=O)CNC(=O)[C@@H](NC(=O)[C@H](Cc1ccc(O)cc1)NC(=O)[C@@H](NC(=O)[C@@H](N)CC(C)C)[C@@H](C)O)[C@@H](C)O)C(=O)N[C@@H](CCCCN)C(=O)N[C@@H](CC(C)C)C(=O)O [Epitope M15] (H-LTYTGAIKL-OH; N-terminus and C-terminus assumed)	> 15	< 5				< 5	> 15	
CC[C@H](C)[C@H](NC(=O)[C@H](CCCNC(=N)N)NC(=O)[C@H](CO)NC(=O)[C@H](CCSC)NC(=O)CNC(=O)[C@@H](N)Cc1ccccc1)C(=O)NCC(=O)N[C@@H](CCSC)C(=O)N[C@@H](CCC(=O)O)C(=O)N[C@H](C(=O)O)C(C)C [Epitope M19] (H-FGMSRIGMEV-OH; N-terminus and C-terminus assumed)	> 15	< 5	> 15			> 15		
CSCC[C@H](NC(=O)[C@H](CO)NC(=O)[C@H](CCCNC(=N)N)NC(=O)[C@@H](NC(=O)[C@H](CCCNC(=N)N)NC(=O)[C@H](C)NC(=O)[C@H](Cc1ccccc1)NC(=O)[C@H](CC(C)C)NC(=O)[C@@H](N)CCCNC(=N)N)[C@@H](C)O)C(=O)O [Epitope M41] (H-RLFARTRSM-OH; N-terminus and C-terminus assumed)	> 15			9.56	35.7	5 to 15		IC50 [4]: > 15 µM
CC(C)C[C@H](NC(=O)[C@H](C)NC(=O)[C@@H](NC(=O)[C@H](Cc1ccccc1)NC(=O)[C@H](Cc1c[nH]c2ccccc12)NC(=O)[C@H](CO)NC(=O)[C@H](C)NC(=O)[C@@H](NC(=O)[C@@H](N)CC(N)=O)[C@@H](C)O)[C@@H](C)O)C(=O)O [Epitope M56, NTASWFTAL] (H-NTASWFTAL-OH; N-terminus and C-terminus assumed)		> 15	> 15	17.3	46.5	5 to 15		
CC[C@H](C)[C@H](NC(=O)[C@H](Cc1ccc(O)cc1)NC(=O)[C@H](CC(C)C)NC(=O)[C@H](Cc1ccccc1)NC(=O)[C@H](CCCNC(=N)N)NC(=O)[C@H](CC(N)=O)NC(=O)[C@H](CCCNC(=N)N)NC(=O)[C@H](CC(N)=O)NC(=O)[C@H](C)NC(=O)[C@@H](N)Cc1ccc(O)cc1)C(=O)O [Epitope M73] (H-YANRNRFLYI-OH; N-terminus and C-terminus assumed)		< 5	> 15	23.5	47.8		5 to 15	
CC[C@H](C)[C@H](NC(=O)[C@@H]1CCCN1C(=O)[C@@H](NC(=O)[C@H](Cc1c[nH]cn1)NC(=O)[C@H](CCCCN)NC(=O)[C@H](CO)NC(=O)[C@@H](N)Cc1ccc(O)cc1)[C@@H](C)O)C(=O)N[C@@H](CC(N)=O)C(=O)N[C@@H](CC(C)C)C(=O)O [Epitope M127] (H-YSKHTPINL-OH; N-terminus and C-terminus assumed)	> 15	> 15						
CC(C)[C@H](NC(=O)CNC(=O)[C@H](CCCNC(=N)N)NC(=O)[C@@H](NC(=O)[C@H](Cc1ccccc1)NC(=O)[C@H](CO)NC(=O)[C@@H](N)CC(N)=O)[C@@H](C)O)C(=O)N[C@@H](Cc1ccc(O)cc1)C(=O)N[C@@H](Cc1ccc(O)cc1)C(=O)O [Epitope M129] (H-NSFTRGVYY-OH; N-terminus and C-terminus assumed)			> 15	11.3	34.3		> 15	
C[C@H](NC(=O)[C@H](CO)NC(=O)[C@H](CO)NC(=O)[C@@H](N)Cc1ccc(O)cc1)C(=O)N[C@@H](CC(N)=O)C(=O)N[C@@H](CC(N)=O)C(=O)N[C@@H](CS)C(=O)N[C@H](C(=O)N[C@@H](Cc1ccccc1)C(=O)O)[C@@H](C)O [Epitope Y247] (H-YSSANNCTF-OH; N-terminus and C-terminus assumed)								IC50 [7]: < 5 µM; IC50 [8]: 5 to 15 µM; IC50 [9]: > 15 µM; IC50 ([10]; HMy2.CIR-B4601 cells, reference Cy5-[…], class from inhibition at 5 and 15 μM, flow cytometry MFI, read-out: Binding affinity with HLA-B4601): 5 to 15 µM; inhibition at 5 µM ([10]; read-out: Inhibition % of Cy5-reference peptide binding, CIR-B4601, 5μM peptide): 44.6%; inhibition at 15 µM ([10]; read-out: Inhibition % of Cy5-reference peptide binding, CIR-B4601, 15μM peptide): 86.4%; IC50 [11]: > 15 µM; IC50 [12]: > 15 µM; IC50 [13]: > 15 µM

From article PMC12133982, “Predominant T-cell epitopes of SARS-CoV-2 restricted by multiple prevalent HLA-B and HLA-C allotypes in Northeast Asia” (Frontiers in Immunology, 2025)
